This passage reports IC50 results from patent US9365588B2, “Benzoxazines as modulators of ion channels” (Vertex Pharmaceuticals Incorporated, priority 2011, dated 2016).

The target of the test is human NaV 1.7 (Homo sapiens, UniProt Q15858). Briefly: E-VIPR optical membrane potential assay with electrical stimulation. Type of test: cell-based. The note with it: sodium channel inhibition; read-out: Binned Activity Data (IC50). In outline:
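Membrane-potential read-out: background-subtracted 460 nm/580 nm ratio during a 9 s current-controlled stimulus, 400 Hz scan. Before stimulation, NaV1.7-HEK cells carried coumarin/oxonol dye and compound (final DMSO 0.625%) for 20–35 min at room temperature; tetracaine 125 μM served as positive control.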

Sequence of human NaV 1.7 (Q15858 whole entry): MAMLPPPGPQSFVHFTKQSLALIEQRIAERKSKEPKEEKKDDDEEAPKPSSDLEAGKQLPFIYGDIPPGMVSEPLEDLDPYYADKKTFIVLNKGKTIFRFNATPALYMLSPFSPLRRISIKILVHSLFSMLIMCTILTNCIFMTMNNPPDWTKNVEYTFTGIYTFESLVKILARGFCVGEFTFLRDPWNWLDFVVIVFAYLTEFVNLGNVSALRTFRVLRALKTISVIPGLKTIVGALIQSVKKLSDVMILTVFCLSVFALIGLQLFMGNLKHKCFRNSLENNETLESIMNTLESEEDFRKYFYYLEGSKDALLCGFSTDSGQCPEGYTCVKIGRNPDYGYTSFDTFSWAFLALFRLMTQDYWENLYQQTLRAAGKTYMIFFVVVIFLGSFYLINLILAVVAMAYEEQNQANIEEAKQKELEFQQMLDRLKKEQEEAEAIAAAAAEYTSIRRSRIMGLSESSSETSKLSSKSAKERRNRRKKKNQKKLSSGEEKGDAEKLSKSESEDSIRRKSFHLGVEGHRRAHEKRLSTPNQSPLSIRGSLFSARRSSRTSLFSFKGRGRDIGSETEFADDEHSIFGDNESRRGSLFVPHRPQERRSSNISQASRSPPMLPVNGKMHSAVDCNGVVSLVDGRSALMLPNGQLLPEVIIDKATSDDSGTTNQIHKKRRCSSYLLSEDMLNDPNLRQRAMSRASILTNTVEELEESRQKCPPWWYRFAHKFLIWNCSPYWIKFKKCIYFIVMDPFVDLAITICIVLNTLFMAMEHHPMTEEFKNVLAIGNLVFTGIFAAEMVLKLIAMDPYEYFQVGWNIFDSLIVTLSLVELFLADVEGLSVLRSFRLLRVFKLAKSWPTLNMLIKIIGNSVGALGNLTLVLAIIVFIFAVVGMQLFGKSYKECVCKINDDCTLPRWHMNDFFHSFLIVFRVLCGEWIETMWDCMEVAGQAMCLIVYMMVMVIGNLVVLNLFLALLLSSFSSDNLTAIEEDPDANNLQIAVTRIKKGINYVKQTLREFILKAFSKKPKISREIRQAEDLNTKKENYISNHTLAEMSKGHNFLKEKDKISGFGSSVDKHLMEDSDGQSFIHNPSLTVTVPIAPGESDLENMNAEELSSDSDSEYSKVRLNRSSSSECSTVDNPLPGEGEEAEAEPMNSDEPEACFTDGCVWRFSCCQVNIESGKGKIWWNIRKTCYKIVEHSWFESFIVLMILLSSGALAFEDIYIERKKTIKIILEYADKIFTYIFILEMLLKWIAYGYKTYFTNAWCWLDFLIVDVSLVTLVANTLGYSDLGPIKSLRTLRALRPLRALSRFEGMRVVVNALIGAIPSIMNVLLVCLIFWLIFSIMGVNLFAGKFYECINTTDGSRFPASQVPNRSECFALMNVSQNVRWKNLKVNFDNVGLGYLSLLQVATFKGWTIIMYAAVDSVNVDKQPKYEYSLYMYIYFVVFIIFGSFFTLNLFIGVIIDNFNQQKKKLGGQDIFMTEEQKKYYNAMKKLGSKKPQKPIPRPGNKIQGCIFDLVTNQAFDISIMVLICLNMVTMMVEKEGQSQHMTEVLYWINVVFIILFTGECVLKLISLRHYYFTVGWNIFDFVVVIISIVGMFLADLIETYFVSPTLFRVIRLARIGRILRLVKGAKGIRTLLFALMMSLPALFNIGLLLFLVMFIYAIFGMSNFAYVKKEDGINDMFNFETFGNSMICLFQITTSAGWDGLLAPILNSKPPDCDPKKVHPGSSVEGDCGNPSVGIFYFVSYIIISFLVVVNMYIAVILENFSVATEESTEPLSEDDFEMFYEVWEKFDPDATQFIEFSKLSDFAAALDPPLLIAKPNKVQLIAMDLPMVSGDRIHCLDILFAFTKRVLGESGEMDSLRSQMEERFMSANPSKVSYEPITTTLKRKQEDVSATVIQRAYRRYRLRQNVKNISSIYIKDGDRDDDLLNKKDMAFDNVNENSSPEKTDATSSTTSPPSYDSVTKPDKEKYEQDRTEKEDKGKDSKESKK

For `CC(C)(C)[S+]([O-])c1ccc(C(=O)N2CCC3(CC2)Oc2ccccc2-n2c(C(F)(F)F)ccc23)cc1` (stereo not drawn) [Compound 882], the IC50 was in the range of 2 to 5 µM.
As for `CC(C)C(O)c1ccc(C(=O)N2CCC3(CC2)Oc2ccccc2-n2c(C#N)ccc23)cc1` (stereo not drawn) [Compound 65], the figure is no more than 2 µM; as for `COc1cc(C(C)(C)O)ccc1C(=O)N1CCC2(CC1)Oc1ccccc1-c1c2cnn1C` [Compound 637], no more than 2 µM; as for `COc1cc(C(=O)N2CCC3(CC2)Oc2ccccc2-n2cccc23)ccc1OCCO` [Compound 97], no more than 2 µM.
As for `COc1ncccc1C(=O)N1CCC2(CC1)Oc1ccccc1-c1c2cnn1C` [Compound 642], the figure is 2 to 5 µM; as for `CC(C)Oc1ccc(C(=O)N2CCC3(CC2)Oc2ccccc2-n2c(C#N)ccc23)cc1CO` [Compound 559], no more than 2 µM; as for `COc1cc(F)c(C(=O)N2CCC3(CC2)Oc2cc(Cl)ccc2-n2cccc23)cc1OC` [Compound 561], no more than 2 µM.
Take `COc1c(CO)cccc1C(=O)N1CCC2(CC1)Oc1ccccc1-c1c2cnn1C` [Compound 853]: the IC50 was no more than 2 µM.
Turning to `Cn1cc2c(n1)-c1cc(F)ccc1OC21CCN(C(=O)c2ccccc2OC(F)(F)F)CC1` [Compound 175], the IC50 was no more than 2 µM.
The same measure for `COc1cc(C(=O)N2CCC3(CC2)Oc2ccccc2-c2c3cnn2C)ccc1C1CC1` [Compound 442]: no more than 2 µM.
As for `COc1cc(C(=O)N2CCC3(CC2)Oc2ccccc2-n2cccc23)ccc1C(C)(C)C` [Compound 573], the figure is no more than 2 µM.
Regarding `CC(C)Oc1ccc(C(=O)N2CCC3(CC2)Oc2ccccc2-c2c3cnn2C)cc1` [Compound 464], the 50% inhibitory concentration (IC50) was no more than 2 µM.
As for `Cn1ncc2c1-c1ccccc1OC21CCN(C(=O)c2ccc3nc(Cl)sc3c2)CC1` [Compound 842], the figure is greater than 5 µM; as for `CC(C)Oc1ccc(C(=O)N2CCC3(CC2)Oc2ccccc2-n2c([S+](C)[O-])ccc23)cc1CO` (stereo not drawn) [Compound 286], no more than 2 µM; as for `COc1cc(C(=O)N2CCC3(CC2)Oc2ccccc2-c2c3cnn2C)ccc1OC(F)F` [Compound 169], 2 to 5 µM.
For `COc1cc(C(=O)N2CCC3(CC2)Oc2cc(Cl)ccc2-n2cccc23)ccc1CCO` [Compound 635], the concentration for half-maximal inhibition (IC50) was no more than 2 µM.
The same measure for `Cc1cc(S(C)(=O)=O)ccc1C(=O)N1CCC2(CC1)Oc1ccccc1-n1c(C#N)ccc12` [Compound 784]: no more than 2 µM; for `COc1cc(C(=O)N2CCC3(CC2)Oc2ccc(F)cc2-c2nn(C)cc23)ccc1OC(C)C` [Compound 435]: no more than 2 µM.
The same measure for `COc1ccc(C(=O)N2CCC3(CC2)Oc2ccccc2-n2c(C(F)(F)F)ccc23)cc1C` [Compound 884]: no more than 2 µM; for `O=C(c1ccc(O)c(Cl)c1)N1CCC2(CC1)Oc1ccccc1-n1c(C(F)(F)F)ccc12` [Compound 878]: no more than 2 µM.
Regarding `COc1ccc(C(=O)N2CCC3(CC2)Oc2ccccc2-n2c(C(F)(F)F)ccc23)c(F)c1` [Compound 875], the IC50 lay within 2 to 5 µM.
As for `Cc1c(C(=O)N2CCC3(CC2)Oc2ccccc2-c2c3cnn2C)cnn1-c1ccc(F)cc1` [Compound 814], the figure is greater than 5 µM; as for `Cn1ncc2c1-c1ccccc1OC21CCN(C(=O)c2ccc3c(c2)CC(C)(C)O3)CC1` [Compound 182], 2 to 5 µM.
The same measure for `N#Cc1ccc2n1-c1ccccc1OC21CCN(C(=O)c2ccc(S(=O)(=O)NCCCO)cc2)CC1` [Compound 540]: 2 to 5 µM; for `Cn1ncc2c1-c1ccccc1OC21CCN(C(=O)c2ccc3c(c2)C(C)(C)CO3)CC1` [Compound 369]: no more than 2 µM; for `COCCOc1ccc(C(=O)N2CCC3(CC2)Oc2ccccc2-c2c3ccn2C)cc1OC` [Compound 298]: no more than 2 µM.
The same measure for `Cc1cc(C(=O)N2CCC3(CC2)Oc2ccccc2-c2c3cnn2C)ccc1O` [Compound 700]: no more than 2 µM; for `COCc1ccccc1C(=O)N1CCC2(CC1)Oc1ccccc1-c1c2cnn1C` [Compound 219]: no more than 2 µM.
As to `COc1cc(C(=O)N2CCC3(CC2)Oc2ccccc2-n2ccnc23)ccc1OC(C)C` [Compound 316], the IC50 is no more than 2 µM.
For `COc1cccc(F)c1C(=O)N1CCC2(CC1)Oc1ccccc1-c1c2cnn1C` [Compound 763], the IC50 was 2 to 5 µM.
Turning to `COc1ccc(C(=O)N2CCC3(CC2)Oc2cc(Cl)ccc2-n2cccc23)c(C(F)(F)F)c1` [Compound 129], the 50% inhibitory concentration (IC50) is no more than 2 µM.
With `COc1cccc(C)c1C(=O)N1CCC2(CC1)Oc1ccccc1-c1c2cnn1C` [Compound 259], the half-inhibitory concentration (IC50) is no more than 2 µM.
As for `CCc1ccccc1C(=O)N1CCC2(CC1)Oc1cc(Cl)ccc1-n1cccc12` [Compound 833], the IC50 is no more than 2 µM.
As for `Cc1cc(C(=O)N2CCC3(CC2)Oc2ccccc2-c2c3cnn2C)ccc1OC(C)(C)C` [Compound 610], the figure is no more than 2 µM.
As for `CC(C)(C)S(=O)(=O)c1ccc(C(=O)N2CCC3(CC2)Oc2ccccc2-n2c3ccc2S(C)(=O)=O)cc1` [Compound 404], the figure is no more than 2 µM; as for `N#Cc1ccc2n1-c1ccccc1OC21CCN(C(=O)c2ccc(F)cc2Cl)CC1` [Compound 807], greater than 5 µM.
The same measure for `COc1ccc(C(=O)N2CCC3(CC2)Oc2ccccc2-c2c3cnn2C)cc1Cl` [Compound 227]: 2 to 5 µM; for `COc1cc(C(=O)N2CCC3(CC2)Oc2cc(Cl)ccc2-n2cccc23)ccc1C1(O)COC1` [Compound 287]: no more than 2 µM; for `CC(=O)NCc1ccc2n1-c1ccccc1OC21CCN(C(=O)c2ccc(OC(C)C)c(C)c2)CC1` [Compound 514]: no more than 2 µM.
Turning to `COc1cc(C(=O)N2CCC3(CC2)Oc2cc(F)ccc2-n2cccc23)ccc1O[C@@H]1CCC[C@H]1O` [Compound 34], the IC50 is no more than 2 µM.
`N#Cc1ccc2n1-c1ccccc1OC21CCN(C(=O)c2ccc(OC(F)F)cc2)CC1` [Compound 2]: the half-inhibitory concentration (IC50) is greater than 5 µM.
`CC(=O)c1ccc2n1-c1ccccc1OC21CCN(C(=O)c2ccc(C(C)(C)O)cc2)CC1` [Compound 379]: the IC50 was no more than 2 µM.
As for `Cc1ccc(C(=O)N2CCC3(CC2)Oc2ccccc2-n2c3ccc2S(C)(=O)=O)cc1Cl` [Compound 793], the figure is no more than 2 µM; as for `COc1cc(C(=O)N2CCC3(CC2)Oc2ccccc2-n2cccc23)ccc1O[C@@H]1CCOC1` [Compound 112], no more than 2 µM.
For the compound `COc1ccc(C(=O)N2CCC3(CC2)Oc2cc(Cl)ccc2-n2cccc23)c(OC)c1` [Compound 578], the half-maximal inhibitory concentration (IC50) is no more than 2 µM.
As for `COc1c(F)cccc1C(=O)N1CCC2(CC1)Oc1cc(Cl)ccc1-n1c(C#N)ccc12` [Compound 665], the figure is no more than 2 µM; as for `COc1cccc2c1c(C(=O)N1CCC3(CC1)Oc1ccccc1-c1c3cnn1C)cn2C` [Compound 487], no more than 2 µM; as for `CCn1ncc2c1-c1ccccc1OC21CCN(C(=O)c2ccccc2OC(F)(F)F)CC1` [Compound 321], no more than 2 µM.
The same measure for `CC(C)Oc1ccc(C(=O)N2CCC3(CC2)Oc2cc(C#N)ccc2-n2cccc23)cc1` [Compound 208]: no more than 2 µM; for `Cn1cc(C(=O)N2CCC3(CC2)Oc2cc(Cl)ccc2-n2cccc23)ccc1=O` [Compound 670]: greater than 5 µM.
As for `CC(C)(O)c1ccc(C(=O)N2CCC3(CC2)Oc2ncccc2-n2c(C(F)(F)F)ccc23)cc1` [Compound 726], the figure is no more than 2 µM; as for `O=C(c1ccccc1OC(F)F)N1CCC2(CC1)Oc1ccccc1-c1c2cnn1C(F)(F)F` [Compound 337], no more than 2 µM.
As for `CC(C)(O)Cc1ccc(C(=O)N2CCC3(CC2)Oc2ccccc2-n2c(C#N)ccc23)cc1` [Compound 308], the IC50 was no more than 2 µM.
The same measure for `N#Cc1ccc2n1-c1ccccc1OC21CCN(C(=O)c2cccc(F)c2OC(F)F)CC1` [Compound 125]: no more than 2 µM; for `CCc1ccc(C(=O)N2CCC3(CC2)Oc2ccccc2-n2ccc(C)c23)cc1OC` [Compound 314]: no more than 2 µM.
In the case of `Cc1cc(C(=O)N2CCC3(CC2)Oc2ccccc2-n2c3ccc2S(C)(=O)=O)ccc1OC(C)C` [Compound 554], the IC50 was no more than 2 µM.
On to `COc1ccc2c(c1)-c1c(cnn1C)C1(CCN(C(=O)c3ccc(OC(C)C)c(C)c3)CC1)O2` [Compound 822], for which the concentration for half-maximal inhibition (IC50) was no more than 2 µM.
The same measure for `CCCOc1ccc(C(=O)N2CCC3(CC2)Oc2cc(F)ccc2-n2cccc23)cc1OC` [Compound 812]: no more than 2 µM; for `CC(C)(CO)c1ccc(C(=O)N2CCC3(CC2)Oc2cc(Cl)ccc2-n2cccc23)cc1` [Compound 106]: no more than 2 µM.
Turning to `Cn1cc2c(n1)-c1ccccc1OC21CCN(C(=O)c2ccc(OC(F)F)cc2)CC1` [Compound 284], the half-maximal inhibitory concentration (IC50) is no more than 2 µM.
As for `COc1cc(C(=O)N2CCC3(CC2)Oc2ccccc2-c2c3cnn2C)ccc1O[C@@H]1CCOC1` [Compound 427], the figure is no more than 2 µM; as for `COc1cc(C(=O)N2CCC3(CC2)Oc2ccccc2-c2c3cnn2C)ccc1OC(C)(C)C#N` [Compound 758], no more than 2 µM.
`CC(C)Oc1ccc(C(=O)N2CCC3(CC2)Oc2ccccc2-n2c(C#N)ccc23)c(F)c1` [Compound 318]: the IC50 was no more than 2 µM.
As for `CC(C)c1ccc(C(=O)N2CCC3(CC2)Oc2cc(Cl)ccc2-n2cccc23)c(=O)[nH]1` [Compound 39], the figure is no more than 2 µM.
For the compound `Cn1ncc2c1-c1ccccc1OC21CCN(C(=O)c2ccc(S(=O)(=O)C(C)(C)C)cc2)CC1` [Compound 643], the 50% inhibitory concentration (IC50) fell in the range of 2 to 5 µM.
With `Cc1cc(C(=O)N2CCC3(CC2)Oc2cc(Cl)ccc2-n2cccc23)ccc1C(C)(C)O` [Compound 792], the IC50 was no more than 2 µM.
Regarding `COc1ccc(C(=O)N2CCC3(CC2)Oc2ccccc2-n2c(C(F)(F)F)ccc23)c(OC)c1OC` [Compound 164], the half-maximal inhibitory concentration (IC50) was no more than 2 µM.
As for `CC(C)Oc1ccc(C(=O)N2CCC3(CC2)Oc2ccccc2-c2c3cnn2C)cc1F` [Compound 650], the figure is no more than 2 µM; as for `COC[C@H](C)Oc1ccc(C(=O)N2CCC3(CC2)Oc2ccccc2-n2cccc23)cc1OC` [Compound 725], no more than 2 µM.
